Reference: patent US11339442B2, “Methods of detecting insulator dysfunction and oncogene activation for screening, diagnosis and treatment of patients in need thereof” (THE GENERAL HOSPITAL CORPORATION, priority 2015, dated 2022)
“Also recorded” adds a separate entry of the source. Read-outs that look alike come from different tables or passages of the source.

Experiments:
[1] = system: Factor VII; conditions: LNP siRNA systems containing the lipid; cited from earlier work
[2] = system: newly diagnosed AML; conditions: cited from earlier work
[3] = system: PDGFRA; conditions: BT142 gliomaspheres, 5 μM 5-azacytidine for 8 days
[4] = system: CTCF; test: CTCF occupancy ChIP qPCR at the boundary adjacent to PDGFRA, BT142 gliomaspheres; type: cell-based, human; conditions: 5 μM 5-azacytidine for 8 days
Protocol: Chromatin Immunoprecipitation-Chromatin Immunoprecipitation (ChIP) and sequencing (ChIP-Seq) was performed as described previously^32. Briefly, cultured cells or minced tissue was fixed in 1% formaldehyde and snap frozen in liquid nitrogen and stored at -80° C. for at least overnight. […] ChIP DNA was used to generate sequencing libraries by end repair (End-ItTM DNA repair kit, Epicentre), 3' A base overhang addition via Klenow fragment (NEB), and ligation of barcoded sequencing adapters. Barcoded fragments were amplified via PCR. […] Occupancy of the CTCF site in the boundary element adjacent to the PDGFRA locus was quantified by ChIP qPCR, using the following primers: […] CTCF peak intensity was further normalized as ratio to two invariant peaks, at PSMB1 and SPG11, using the following primers: PSMB1[NT]

[5] = system: CpG in the CTCF motif of the boundary adjacent to PDGFRA; test: DNA methylation quantification (bisulfite sequencing), BT142 gliomaspheres treated with demethylating agent; type: cell-based, human; conditions: 5 μM 5-azacytidine for 8 days
Protocol: DNA Methylation Quantification-DNA methylation was analyzed in two ways. For gliomaspheres, genomic DNA was isolated via QiaAmp® DNA minikit (Qiagen®) and subjected to Bisulfite Conversion (EZ DNA Methylation GoldTM Kit-Zymo Research). Bisulfite converted DNA specific to the CTCF binding site (defined by JASPAR^40) in the boundary adjacent to PDGFRA was amplified using the following primers [NT]

[6] = system: acute leukemia of all cell types in relapse; conditions: end of trial, cited from earlier work
[7] = preclinical studies; cited from earlier work
[8] = biological target: T1, FIP1L1-PDGFRA (Homo sapiens, UniProt P16234); conditions: FIP1L1-PDGFRA versus BCR-ABL; cited from earlier work
T1 construct: the other entry of the earlier key: FIP1L1 (Q6UN15, Pre-mRNA 3'-end-processing factor FIP1)
T1 sequence (P16234 593-1089 limits assumed): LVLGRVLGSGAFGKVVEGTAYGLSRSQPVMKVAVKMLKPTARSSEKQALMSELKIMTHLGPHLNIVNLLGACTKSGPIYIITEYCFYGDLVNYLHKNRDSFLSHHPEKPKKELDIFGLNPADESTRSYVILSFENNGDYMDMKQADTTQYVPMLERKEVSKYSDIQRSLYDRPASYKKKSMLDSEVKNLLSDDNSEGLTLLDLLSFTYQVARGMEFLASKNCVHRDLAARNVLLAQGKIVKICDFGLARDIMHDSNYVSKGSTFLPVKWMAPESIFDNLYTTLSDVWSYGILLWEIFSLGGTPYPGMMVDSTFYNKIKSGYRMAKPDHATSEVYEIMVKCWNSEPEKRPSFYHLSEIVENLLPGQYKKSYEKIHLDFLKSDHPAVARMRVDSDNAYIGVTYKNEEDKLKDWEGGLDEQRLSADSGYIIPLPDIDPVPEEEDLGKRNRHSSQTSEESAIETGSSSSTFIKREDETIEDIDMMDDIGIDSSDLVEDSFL

[9] = compared with aza; cited from earlier work
[10] = system: GSC6 gliomaspheres; test: Cell growth assay (CellTiter-Glo), GSC6 cells expressing CRISPR; type: cell-based, human; conditions: 1 μM Dasatinib or 500 nM Crenolanib
Protocol: Cell Growth Assay—For the cell growth assay, 2,500 dissociated viable GSC6 cells expressing CRISPR and either GFP or Insulator targeting sgRNA (see above) were plated in […], of media in an opaque-walled tissue culture 96 well plate, in 1 μM Dasatinib, 500 nM Crenolanib, or equivalent DMSO (1:10,000) as a vehicle control. Cell growth was analyzed at days 3, 5, and 7 for Dasatinib, or days 3, 7, and 10 for Crenolanib, using CellTiter-Glo® reagent (Promega™) following the manufacturer's protocol. Data was normalized across days using an ATP standard curve.

[11] = system: advanced leukemia or MDS; conditions: cited from earlier work
[12] = system: MDS (RAEBT); conditions: patients with RAEBT, 3-day course 15 mg/m^2 daily; cited from earlier work
[13] = system: CMLs in transformation; conditions: first 13 patients, 100 mg/m^2 over 6 h every 12 h for 5 days; cited from earlier work
[14] = preclinical in vitro studies; cited from earlier work
[15] = system: OLIG2 insulator; test: ChIP-qPCR for CTCF and H3K9me3 after dCas9 / dCas9-KRAB recruitment, HEK293 cells; type: cell-based
[16] = system: PDGFRA insulator; test: as above; type: cell-based
Protocol: Applicants performed these experiments at the PDGFRA insulator in HEK293 cells (FIG. 16A, Top). […] HEK293 cells were seeded into 100 mm cell culture dishes two days before transfection and grown to 60-70% confluency. […] of either dCas9 or dCas9-KRAB constitutive expression vector (JDS286 and Addgene Plasmid #50919 respectively) (FIG. 18) and 1 ug of guide RNA expression vector (pXPR1_noCas, Broad GPP) (FIG. 19) were mixed in 450ul OptiMEM. 27ul of FugeneHD was added and tubes were vortexed for two times one second, incubated at room temp for ten minutes and added dropwise to cell culture dishes.
Cells were harvested three days after transfection and crosslinked in 1% formaldehyde at 37 C for 10 min. ChIP-qPCR was performed as previously described. Briefly, cells were lysed on ice, sonicated in 0.3% SDS for 5 minutes total time at ˜10W power, incubated with the relevant antibody overnight at 4C with rotation after dilution to 0.1% SDS. Antibody-bound chromatin was isolated using protein G magnetic beads. Bound complex is washed several times and eluted off the beads at 65C for 1h with shaking. Eluted complex is treated with RNase for 30 min at 37C and protinase K for 3h at 63C while crosslinks are reversed concurrently. IP DNA is cleaned up using a 2× Ampure XP DNA bead cleanup as per manufacturer's instructions.

For “1,2-dilinoleyloxy-keto-N,N-dimethyl-3-aminopropane [DLinKDMA]”, the “gene silencing potency in hepatocytes in vivo (rank series)” value (shortened to “gene silencing potency in hepatocytes”) [1] is listed as “DLinKC2-DMA>DLinKDMA>DLinDMA>>DLinDAP”.

In the case of `Nc1ncn([C@@H]2O[C@H](CO)[C@@H](O)[C@H]2O)c(=O)n1` [5-aza, 5-azacytidine], the “patients with complete or partial remission” value ([2]; 15 adult patients, 75 mg/m^2 daily s.c. for 7 days every 4 weeks) is given as “Eight”, the “average number of cycles to remission” value ([2]; in vivo) is given as “three” and the “duration of response, average” value ([2]; patients who achieved complete remission) is given as 8 (range, 6-13) cycles. The “duration of response, average” value ([2]; patients who achieved partial remission) was 3 (range, 2-3) cycles, the “down-regulation of PDGFRA expression” value [3] was about 5 fold and the “increase of CTCF occupancy” value [4] was about 1.7 fold. The “reduction of methylation of the CTCF motif” value [5] was about 2.5 fold, the overall response rate ([6]; adult patients with acute leukemia in relapse) was 9.2% and the “patients achieving complete remission” value [6] was “nine”. The “patients achieving partial remission” value [6] was “two”.

In the case of `C[C@@H](Nc1nc(N[C@H](C)C(F)(F)F)nc(-c2cccc(Cl)n2)n1)C(F)(F)F` [AG-881], the blood-brain barrier penetration [7] is given as “fully penetrate the blood-brain barrier”.

In the case of `CCCCC/C=C\C/C=C\CCCCCCCC(=O)OCC(CN(C)C)OC(=O)CCCCCCC/C=C\C/C=C\CCCCC` (stereo not shown) [DLinDAP, 1,2-dilineoyl-3-dimethylammonium-propane], the “gene silencing potency in hepatocytes” value [1] is listed as “DLinKC2-DMA>DLinKDMA>DLinDMA>>DLinDAP”.

In the case of `CCCCC/C=C\C/C=C\CCCCCCCCOCC(CN(C)C)OCCCCCCCC/C=C\C/C=C\CCCCC` (stereo not shown) [DLinDMA, 1,2-dilinoleyloxy-3-N,N-dimethylaminopropane], the “gene silencing potency in hepatocytes” value [1] is given as “DLinKC2-DMA>DLinKDMA>DLinDMA>>DLinDAP”.

In the case of `CCCCC/C=C\C/C=C\CCCCCCCCC1(CCCCCCCC/C=C\C/C=C\CCCCC)OCC(CCN(C)C)O1` (stereo not shown) [DLinKC2-DMA, 1,2-dilinoleyl-4-(2-dimethylaminoethyl)-[1,3]-dioxolane], the “gene silencing potency in hepatocytes” value [1] is listed as “DLinKC2-DMA>DLinKDMA>DLinDMA>>DLinDAP”.

In the case of `Cc1ccc(NC(=O)c2ccc(CN3CCN(C)CC3)cc2)cc1Nc1nccc(-c2cccnc2)n1` [Imatinib], the “IC50 lower as compared to BCR-ABL” value [8] is given as 250 fold.

For `O=c1ncccn1[C@@H]1O[C@H](CO)[C@@H](O)[C@H]1O` [Zebularine], the stability [9] is listed as “more stable than aza”.

With `CC1(COc2ccc3c(c2)ncn3-c2ccc3cccc(N4CCC(N)CC4)c3n2)COC1` [crenolanib] the “effect on the growth advantage of insulator CRISPR gliomaspheres” value [10] was “abrogated” and the “effect on the growth advantage of insulator CRISPR gliomaspheres” value ([10]; listed as Crenolanib) was “eliminated”.

In the case of `Nc1ncn([C@H]2C[C@H](O)[C@@H](CO)O2)c(=O)n1` [decitabine, 5-aza-2′-deoxycytidine], the “complete response (CR)” value ([11]; 37 patients with AML) is listed as 14%, the “partial response (PR)” value ([11]; 37 patients with AML) is listed as 8% and the response rate ([11]; comparison group to the higher doses / longer cycles) is listed as 45%. The “patients achieving CR” value ([11]; five patients with CML) was “two”, the “patients achieving PR” value ([11]; five patients with CML) was “two” and the response rate ([11]; higher doses (20 mg/m^2 for 10 days) and longer treatment cycles (15 mg/m2 for 20 days)) was 11%. The “patients in whom only one cycle of therapy was required to achieve a CR” value ([11]; in vivo) was “eight of nine”, the objective responses ([11]; overall, 48 patients) was 33% and the “complete response (CR)” value ([11]; seven patients with MDS) was 28.5%. The “patients achieving PR” value ([11]; seven patients with MDS) was “two”, the percentage of responders [12] was 70% and the adverse effect [13] was “severe prolonged myelosuppression”.

For `Cc1cn(-c2cc(NC(=O)c3ccc(C)c(Nc4nccc(-c5cccnc5)n4)c3)cc(C(F)(F)F)c2)cn1` [nilotinib], the “potency relative to imatinib (factor)” value [14] is given as 20 to 50.

With “dCas9: enzymatically inactive CRISPR enzyme recruited by guide RNA to a CTCF insulator” the “CTCF binding at the OLIG2 insulator” value [15] was “can disrupt CTCF binding; also recorded: can reduce CTCF binding” and the “CTCF binding at the PDGFRA insulator” value [16] was “potently disrupts CTCF binding; also recorded: can reduce CTCF binding”.
